Assays:
[1] = Glutathione peroxidase like activity assessed as hydrogen peroxide reduction by measuring reaction rate at 0.1 mM measured for 180 sec in presence of PhSH relative to control
[2] = test system: Saccharomyces cerevisiae; experiment: Inhibition of Bakers yeast alpha-glucosidase at 500 uM using o-orp-nitrophenyl-glycopyranoside as substrate measured for 120 sec relative to control
[3] = Antiproliferative activity against human HeLa cells after 48 hrs by sulforhodamine B assay; assay type: functional
[4] = Competitive inhibition of almond beta-glucosidase using o-orp-nitrophenyl-glycopyranoside as substrate by Lineweaver-Burk plot method; design: species or system Prunus dulcis
[5] = Antiproliferative activity against human WiDr cells after 48 hrs by sulforhodamine B assay; assay type: functional
[6] = Antiproliferative activity against human HBL100 cells after 48 hrs by sulforhodamine B assay; assay type: functional; details: HBL-100, 48 h
[7] = Glutathione peroxidase like activity assessed as hydrogen peroxide reduction by measuring compound Vmax measured for 180 sec in prescence of varying levels of Phsh by Hanes-Woof plot method
[8] = test system: Prunus dulcis; experiment: Inhibition of almond beta-glucosidase at 500 uM using o-orp-nitrophenyl-glycopyranoside as substrate measured for 120 sec relative to control
[9] = Glutathione peroxidase like activity assessed as hydrogen peroxide reduction by measuring compound Kcat measured for 180 sec in prescence of varying levels of Phsh by Hanes-Woof plot method
[10] = Inhibition of Bakers yeast alpha-glucosidase using o-orp-nitrophenyl-glycopyranoside as substrate by Lineweaver-Burk plot method; design: species or system Saccharomyces cerevisiae
[11] = target: T1, Acetylcholinesterase (Electrophorus electricus, UniProt O42275); experiment: Mixed-type inhibition of electric eel acetylcholinesterase assessed as enzyme-inhibitor complex by Lineweaver-Burk plot method
T1 sequence (O42275 whole entry): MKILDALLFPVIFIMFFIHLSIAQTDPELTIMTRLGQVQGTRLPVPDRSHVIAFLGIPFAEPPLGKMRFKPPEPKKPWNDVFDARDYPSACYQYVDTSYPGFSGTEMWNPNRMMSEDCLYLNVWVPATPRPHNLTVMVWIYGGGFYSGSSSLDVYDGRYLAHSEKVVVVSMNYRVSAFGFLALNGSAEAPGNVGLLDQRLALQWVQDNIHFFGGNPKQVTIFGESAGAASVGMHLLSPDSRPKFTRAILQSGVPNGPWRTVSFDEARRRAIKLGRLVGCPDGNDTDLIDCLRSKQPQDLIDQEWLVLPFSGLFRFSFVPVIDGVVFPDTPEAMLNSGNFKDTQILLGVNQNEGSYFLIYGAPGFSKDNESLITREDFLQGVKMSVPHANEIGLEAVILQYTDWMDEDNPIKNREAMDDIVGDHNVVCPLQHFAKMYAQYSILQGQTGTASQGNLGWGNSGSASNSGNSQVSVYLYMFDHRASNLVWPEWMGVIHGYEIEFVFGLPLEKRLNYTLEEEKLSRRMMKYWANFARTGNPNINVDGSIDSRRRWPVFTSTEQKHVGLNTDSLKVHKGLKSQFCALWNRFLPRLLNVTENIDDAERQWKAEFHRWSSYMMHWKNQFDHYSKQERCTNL

[12] = Antiproliferative activity against human A549 cells after 48 hrs by sulforhodamine B assay; assay type: functional; details: A549, 48 h
[13] = Antiproliferative activity against human T47D cells after 48 hrs by sulforhodamine B assay; assay type: functional
[14] = target: T2, Alpha-mannosidase (Canavalia ensiformis, UniProt C0HJB3); experiment: Inhibition of jack bean alpha-mannosidase using o-orp-nitrophenyl-glycopyranoside as substrate by Lineweaver-Burk plot method
T2 sequence (C0HJB3 whole entry): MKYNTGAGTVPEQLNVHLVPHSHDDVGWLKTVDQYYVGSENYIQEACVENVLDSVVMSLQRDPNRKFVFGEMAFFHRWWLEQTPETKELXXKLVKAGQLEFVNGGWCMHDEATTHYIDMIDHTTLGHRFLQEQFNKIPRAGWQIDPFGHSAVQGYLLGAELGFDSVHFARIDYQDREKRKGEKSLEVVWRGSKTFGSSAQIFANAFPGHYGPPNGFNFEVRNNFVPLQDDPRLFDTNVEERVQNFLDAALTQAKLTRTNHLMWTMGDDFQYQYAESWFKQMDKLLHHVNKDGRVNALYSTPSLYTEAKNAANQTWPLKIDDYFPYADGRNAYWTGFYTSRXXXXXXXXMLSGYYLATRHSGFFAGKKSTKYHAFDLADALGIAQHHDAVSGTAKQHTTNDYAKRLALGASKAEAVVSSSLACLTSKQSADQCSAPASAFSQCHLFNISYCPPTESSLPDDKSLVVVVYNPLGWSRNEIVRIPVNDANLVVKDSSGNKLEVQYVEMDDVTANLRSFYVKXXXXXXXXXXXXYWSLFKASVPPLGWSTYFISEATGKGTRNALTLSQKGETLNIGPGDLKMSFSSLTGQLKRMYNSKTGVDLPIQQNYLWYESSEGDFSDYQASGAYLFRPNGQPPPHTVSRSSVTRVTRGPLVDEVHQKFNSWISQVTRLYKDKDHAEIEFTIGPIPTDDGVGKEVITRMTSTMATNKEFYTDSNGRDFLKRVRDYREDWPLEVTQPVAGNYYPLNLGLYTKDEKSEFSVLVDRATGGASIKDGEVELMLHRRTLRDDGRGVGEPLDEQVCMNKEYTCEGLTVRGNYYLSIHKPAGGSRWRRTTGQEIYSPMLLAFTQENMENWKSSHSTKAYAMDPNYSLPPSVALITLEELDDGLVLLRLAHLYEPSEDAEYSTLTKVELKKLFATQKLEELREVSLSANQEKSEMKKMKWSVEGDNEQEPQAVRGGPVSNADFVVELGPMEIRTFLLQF

[15] = test system: Escherichia coli; experiment: Inhibition of Escherichia coli beta-galactosidase at 0.5 mM using o-orp-nitrophenyl-glycopyranoside as substrate measured for 120 sec relative to control
[16] = target: T1, Acetylcholinesterase; experiment: Mixed-type inhibition of electric eel acetylcholinesterase assessed as enzyme-substrate-inhibitor complex by Lineweaver-Burk plot method
[17] = test system: Helix pomatia; experiment: Inhibition of Helix-pomatia beta-mannosidase at 0.5 mM using o-orp-nitrophenyl-glycopyranoside as substrate measured every 30 sec for 3 mins relative to control
[18] = Antiproliferative activity against human SW1573 cells after 48 hrs by sulforhodamine B assay; assay type: functional; details: SW1573, 48 h
[19] = test system: Aspergillus oryzae; experiment: Inhibition of Aspergillus oryzae beta-galactosidase at 0.5 mM using o-orp-nitrophenyl-glycopyranoside as substrate measured for 120 sec relative to control
[20] = Glutathione peroxidase like activity assessed as hydrogen peroxide reduction by measuring Kcat to Kuncat ratio measured for 180 sec in prescence of varying levels of Phsh by Hanes-Woof plot method
[21] = Glutathione peroxidase like activity assessed as hydrogen peroxide reduction by measuring compound Km measured for 180 sec in prescence of varying levels of Phsh by Hanes-Woof plot method
[22] = target: Alpha-galactosidase (Coffea arabica) (UniProt Q42656); experiment: Inhibition of green coffee beans alpha-galactosidase at 0.5 mM using o-orp-nitrophenyl-glycopyranoside as substrate measured for 120 sec relative to control
Sequence of Alpha-galactosidase (Coffea arabica) (Q42656 16-378 limits assumed): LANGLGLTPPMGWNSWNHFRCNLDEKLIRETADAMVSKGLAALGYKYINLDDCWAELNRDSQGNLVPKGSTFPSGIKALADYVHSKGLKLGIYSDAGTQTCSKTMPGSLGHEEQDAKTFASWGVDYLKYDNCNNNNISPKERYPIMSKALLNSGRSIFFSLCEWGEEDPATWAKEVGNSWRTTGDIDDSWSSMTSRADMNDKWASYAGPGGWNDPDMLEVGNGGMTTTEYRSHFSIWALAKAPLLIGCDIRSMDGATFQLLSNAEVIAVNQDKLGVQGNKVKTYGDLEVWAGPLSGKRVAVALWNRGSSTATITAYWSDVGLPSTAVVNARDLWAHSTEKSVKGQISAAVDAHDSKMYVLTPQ

[23] = target: Acetylcholinesterase (Electrophorus electricus) (UniProt O42275); experiment: Inhibition of electric eel acetylcholinesterase at 500 uM assessed as thep-nitrophenolate formation measured for 120 sec relative to control
Sequence of Acetylcholinesterase (Electrophorus electricus) (O42275 24-633 limits assumed): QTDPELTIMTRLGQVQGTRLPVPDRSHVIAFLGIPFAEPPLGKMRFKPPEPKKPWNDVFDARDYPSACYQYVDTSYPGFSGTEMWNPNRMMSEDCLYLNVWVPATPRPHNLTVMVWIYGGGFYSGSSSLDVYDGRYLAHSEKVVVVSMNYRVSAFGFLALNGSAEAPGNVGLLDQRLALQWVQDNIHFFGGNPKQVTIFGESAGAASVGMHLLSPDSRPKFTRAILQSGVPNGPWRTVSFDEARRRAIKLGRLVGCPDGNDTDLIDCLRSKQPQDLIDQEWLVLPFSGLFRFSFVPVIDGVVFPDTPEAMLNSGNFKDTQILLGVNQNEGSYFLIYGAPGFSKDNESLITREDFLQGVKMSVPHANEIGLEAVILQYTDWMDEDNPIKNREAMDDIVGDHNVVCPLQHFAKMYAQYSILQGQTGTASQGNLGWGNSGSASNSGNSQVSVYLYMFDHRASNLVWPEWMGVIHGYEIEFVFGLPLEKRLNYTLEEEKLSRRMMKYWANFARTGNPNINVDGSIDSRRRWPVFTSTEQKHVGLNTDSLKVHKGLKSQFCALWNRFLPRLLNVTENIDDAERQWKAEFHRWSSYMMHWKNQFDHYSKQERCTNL

[24] = target: T3, Alpha-mannosidase (Canavalia ensiformis) (UniProt C0HJB3); experiment: Inhibition of jack bean alpha-mannosidase at 0.5 mM using o-orp-nitrophenyl-glycopyranoside as substrate measured every 30 sec for 3 mins relative to control
T3 sequence (whole entry): T2 sequence (C0HJB3 whole entry)

[25] = target: T2, Alpha-mannosidase; experiment: Mixed-type inhibition of jack bean alpha-mannosidase assessed as enzyme-substrate-inhibitor complex using o-orp-nitrophenyl-glycopyranoside as substrate by Lineweaver-Burk plot method
[26] = target: T2, Alpha-mannosidase; experiment: Mixed-type inhibition of jack bean alpha-mannosidase assessed as enzyme-inhibitor complex using o-orp-nitrophenyl-glycopyranoside as substrate by Lineweaver-Burk plot method
[27] = Selectivity ratio of Ki for Bakers yeast alpha-glucosidase to Ki for almond beta-glucosidase
[28] = Glutathione peroxidase like activity assessed as hydrogen peroxide reduction by measuring reaction rate at 0.1 mM measured for 180 sec in presence of PhSH relative to (PhSe)2
[29] = Inhibition of almond beta-glucosidase using p-Nitrophenyl beta-D-glucopyranoside as substrate; design: species or system Prunus dulcis
[30] = Inhibition of Bakers yeast alpha-glucosidase using p-Nitrophenyl alpha-D-glucopyranoside as substrate; design: species or system Saccharomyces cerevisiae

Row | Compound | fold change (FC) [1] | inhibition [2] | GI50 [3] | Ki [4] | GI50 [5] | GI50 [6] | Vmax [7] | inhibition [8] | kcat [9] | Ki [10] | Ki [11] | GI50 [12] | GI50 [13] | inhibition [15] | Ki [16] | inhibition [17] | GI50 [18] | inhibition [19] | Ratio [20] | Km [21] | other results
1 | O=c1c2ccccc2[se]n1-c1ccccc1 | 0.6 | – | – | – | – | – | – | – | – | – | – | – | – | – | – | – | – | – | – | – | –
2 | COc1ccc(NC(=[Se])NCCCCCN2C[C@H](O)[C@@H](O)[C@H](O)[C@H]2CO)cc1 | – | > 50% | 82 µM | 5.5 µM | > 100 µM | 42 µM | 211 µM/min | > 50% | 0.035 s⁻¹ | 36 µM | 83.1 µM | 42 µM | 58 µM | 15% | 58.8 µM | 7% | 46 µM | 29% | 640 | 410 µM | Ki [14]: 510 µM; inhibition [22]: 20%; inhibition [23]: > 50%; inhibition [24]: > 50%
3 | Cc1ccc(NC(=[Se])NCCCCCN2C[C@H](O)[C@@H](O)[C@H](O)[C@H]2CO)cc1 | – | > 50% | 75 µM | 3.7 µM | 97 µM | 76 µM | – | > 50% | – | 35 µM | 105 µM | 45 µM | 68 µM | 31% | 16.9 µM | 16% | 79 µM | 20% | – | – | inhibition [22]: 2%; inhibition [23]: > 50%; inhibition [24]: 46%
4 | OC[C@@H]1[C@@H](O)[C@H](O)[C@@H](O)CN1CCCCCNC(=[Se])Nc1ccc(Br)cc1 | – | > 50% | 27 µM | 1.6 µM | 21 µM | 7.6 µM | 96.4 µM/min | > 50% | 0.016 s⁻¹ | 30.7 µM | 5.8 µM | 7 µM | 12 µM | 12% | 11.2 µM | 18% | 24 µM | 42% | 292 | 330 µM | Ki [25]: 290 µM; Ki [26]: 390 µM; Ratio Ki [27]: < 36; inhibition [22]: 7%; inhibition [23]: > 50%; inhibition [24]: > 50%
5 | c1ccc(COC[C@H]2NC[C@H](OCc3ccccc3)[C@@H](OCc3ccccc3)[C@@H]2OCc2ccccc2)cc1 | 23.6 to 46.1 | – | – | – | – | – | – | – | – | – | – | – | – | – | – | – | – | – | – | – | fold change (FC) [28]: 18
6 | OC[C@H]1NC[C@H](O)[C@@H](O)[C@@H]1O [DUVOGLUSTAT] | – | – | – | – | – | – | – | – | – | – | – | – | – | – | – | – | – | – | – | – | Ki [29]: 47 µM; Ki [30]: 25 µM
7 | c1ccc([Se][Se]c2ccccc2)cc1 | 2.5 | – | – | – | – | – | 27.3 µM/min | – | 0.0045 s⁻¹ | – | – | – | – | – | – | – | – | – | 82 | 1110 µM | –
